“And” between values parts separate entries of the source, which are not always exact repeats. Equal entries are not always repeated. Numbers after ± are expanded uncertainties.
Experiment: wn = mass fraction of the nth substance listed
Details: Capillary rise

FC(C(F)(F)F)C(F)(F)F [1,1,1,2,3,3,3-heptafluoropropane] + FCF
surface tension liquid-gas (293.83 K, w2 = 0.3843): 6.74 ± 0.3 mN/m
surface tension liquid-gas (293.91 K, w2 = 0.7179): 7.04 ± 0.3 mN/m and 7.05 ± 0.3 mN/m
surface tension liquid-gas (295.16 K, w2 = 0.3381): 6.6 ± 0.3 mN/m
surface tension liquid-gas (295.43 K, w2 = 0.2853): 6.55 ± 0.3 mN/m
surface tension liquid-gas (295.48 K, w2 = 0.2853): 6.53 ± 0.3 mN/m
surface tension liquid-gas (295.5 K, w2 = 0.7173): 6.81 ± 0.3 mN/m and 6.83 ± 0.3 mN/m
surface tension liquid-gas (295.61 K, w2 = 0.5282): 6.53 ± 0.3 mN/m
surface tension liquid-gas (296.02 K, w2 = 0.3832): 6.41 ± 0.3 mN/m and 6.4 ± 0.3 mN/m
surface tension liquid-gas (296.82 K, w2 = 0.3372): 6.36 ± 0.3 mN/m
surface tension liquid-gas (297.36 K, w2 = 0.3826): 6.2 ± 0.3 mN/m
surface tension liquid-gas (297.42 K, w2 = 0.2844): 6.35 ± 0.3 mN/m and 6.32 ± 0.3 mN/m
surface tension liquid-gas (297.68 K, w2 = 0.5271): 6.29 ± 0.3 mN/m
surface tension liquid-gas (297.86 K, w2 = 0.3366): 6.21 ± 0.3 mN/m
surface tension liquid-gas (299.17 K, w2 = 0.3817): 6.01 ± 0.3 mN/m
surface tension liquid-gas (299.22 K, w2 = 0.2835): 6.13 ± 0.3 mN/m and 6.1 ± 0.3 mN/m
surface tension liquid-gas (299.29 K, w2 = 0.3358): 6.06 ± 0.3 mN/m and 6.07 ± 0.3 mN/m
surface tension liquid-gas (299.5 K, w2 = 0.7156): 6.17 ± 0.3 mN/m
surface tension liquid-gas (299.8 K, w2 = 0.5259): 6.04 ± 0.3 mN/m and 6.03 ± 0.3 mN/m
surface tension liquid-gas (301.27 K, w2 = 0.3346): 5.76 ± 0.3 mN/m
surface tension liquid-gas (301.41 K, w2 = 0.2825): 5.8 ± 0.3 mN/m and 5.82 ± 0.3 mN/m
surface tension liquid-gas (301.58 K, w2 = 0.5249): 5.78 ± 0.3 mN/m and 5.77 ± 0.3 mN/m
surface tension liquid-gas (301.63 K, w2 = 0.7146): 5.9 ± 0.3 mN/m
surface tension liquid-gas (301.75 K, w2 = 0.3803): 5.66 ± 0.3 mN/m and 5.69 ± 0.3 mN/m
surface tension liquid-gas (303.27 K, w2 = 0.3335): 5.52 ± 0.3 mN/m
surface tension liquid-gas (303.33 K, w2 = 0.3795): 5.49 ± 0.3 mN/m and 5.54 ± 0.3 mN/m
surface tension liquid-gas (303.46 K, w2 = 0.2815): 5.55 ± 0.3 mN/m
surface tension liquid-gas (303.55 K, w2 = 0.7137): 5.59 ± 0.3 mN/m
surface tension liquid-gas (303.87 K, w2 = 0.5235): 5.48 ± 0.3 mN/m and 5.44 ± 0.3 mN/m
surface tension liquid-gas (305.17 K, w2 = 0.3785): 5.35 ± 0.3 mN/m and 5.33 ± 0.3 mN/m
surface tension liquid-gas (305.26 K, w2 = 0.3323): 5.3 ± 0.3 mN/m and 5.29 ± 0.3 mN/m
surface tension liquid-gas (305.28 K, w2 = 0.2805): 5.35 ± 0.3 mN/m and 5.37 ± 0.3 mN/m
surface tension liquid-gas (305.75 K, w2 = 0.7126): 5.34 ± 0.3 mN/m
surface tension liquid-gas (306.29 K, w2 = 0.5221): 5.16 ± 0.3 mN/m and 5.13 ± 0.3 mN/m
surface tension liquid-gas (307.23 K, w2 = 0.3774): 5.01 ± 0.3 mN/m and 5.06 ± 0.3 mN/m
surface tension liquid-gas (307.24 K, w2 = 0.3311): 5.08 ± 0.3 mN/m
surface tension liquid-gas (307.36 K, w2 = 0.7118): 5.04 ± 0.3 mN/m
surface tension liquid-gas (307.39 K, w2 = 0.5214): 4.94 ± 0.3 mN/m
surface tension liquid-gas (307.96 K, w2 = 0.2792): 5.04 ± 0.3 mN/m and 5.05 ± 0.3 mN/m
surface tension liquid-gas (309.18 K, w2 = 0.3299): 4.8 ± 0.3 mN/m
surface tension liquid-gas (309.34 K, w2 = 0.2785): 4.87 ± 0.3 mN/m and 4.85 ± 0.3 mN/m
surface tension liquid-gas (309.43 K, w2 = 0.7107): 4.7 ± 0.3 mN/m
surface tension liquid-gas (309.63 K, w2 = 0.3761): 4.63 ± 0.3 mN/m and 4.67 ± 0.3 mN/m
surface tension liquid-gas (309.81 K, w2 = 0.5198): 4.64 ± 0.3 mN/m and 4.63 ± 0.3 mN/m
surface tension liquid-gas (311.24 K, w2 = 0.3286): 4.61 ± 0.3 mN/m
surface tension liquid-gas (311.26 K, w2 = 0.3752): 4.45 ± 0.3 mN/m and 4.48 ± 0.3 mN/m
surface tension liquid-gas (311.28 K, w2 = 0.7097): 4.51 ± 0.3 mN/m
surface tension liquid-gas (311.62 K, w2 = 0.2773): 4.59 ± 0.3 mN/m and 4.55 ± 0.3 mN/m
surface tension liquid-gas (311.74 K, w2 = 0.5186): 4.38 ± 0.3 mN/m and 4.36 ± 0.3 mN/m
surface tension liquid-gas (313.21 K, w2 = 0.374): 4.26 ± 0.3 mN/m and 4.22 ± 0.3 mN/m
surface tension liquid-gas (313.22 K, w2 = 0.2764): 4.42 ± 0.3 mN/m
surface tension liquid-gas (313.26 K, w2 = 0.7086): 4.22 ± 0.3 mN/m
surface tension liquid-gas (313.35 K, w2 = 0.5175): 4.15 ± 0.3 mN/m and 4.17 ± 0.3 mN/m
surface tension liquid-gas (313.51 K, w2 = 0.3271): 4.32 ± 0.3 mN/m
surface tension liquid-gas (315.28 K, w2 = 0.326): 4.12 ± 0.3 mN/m and 4.13 ± 0.3 mN/m
surface tension liquid-gas (315.3 K, w2 = 0.3728): 4.06 ± 0.3 mN/m and 4.09 ± 0.3 mN/m
surface tension liquid-gas (315.39 K, w2 = 0.7074): 3.96 ± 0.3 mN/m
surface tension liquid-gas (315.43 K, w2 = 0.2752): 4.14 ± 0.3 mN/m and 4.13 ± 0.3 mN/m
surface tension liquid-gas (315.61 K, w2 = 0.5159): 3.88 ± 0.3 mN/m
surface tension liquid-gas (317.24 K, w2 = 0.3247): 3.88 ± 0.3 mN/m
surface tension liquid-gas (317.3 K, w2 = 0.7064): 3.7 ± 0.3 mN/m
surface tension liquid-gas (317.43 K, w2 = 0.2742): 3.91 ± 0.3 mN/m and 3.89 ± 0.3 mN/m
surface tension liquid-gas (317.69 K, w2 = 0.5145): 3.61 ± 0.3 mN/m and 3.63 ± 0.3 mN/m
surface tension liquid-gas (318.29 K, w2 = 0.371): 3.63 ± 0.3 mN/m and 3.62 ± 0.3 mN/m
surface tension liquid-gas (319.25 K, w2 = 0.3234): 3.64 ± 0.3 mN/m
surface tension liquid-gas (319.52 K, w2 = 0.705): 3.38 ± 0.3 mN/m
surface tension liquid-gas (319.58 K, w2 = 0.273): 3.7 ± 0.3 mN/m and 3.67 ± 0.3 mN/m
surface tension liquid-gas (319.63 K, w2 = 0.3702): 3.5 ± 0.3 mN/m
surface tension liquid-gas (320 K, w2 = 0.5129): 3.33 ± 0.3 mN/m and 3.32 ± 0.3 mN/m
surface tension liquid-gas (321.27 K, w2 = 0.3692): 3.29 ± 0.3 mN/m
surface tension liquid-gas (321.3 K, w2 = 0.322): 3.39 ± 0.3 mN/m and 3.38 ± 0.3 mN/m
surface tension liquid-gas (321.31 K, w2 = 0.7039): 3.12 ± 0.3 mN/m
surface tension liquid-gas (321.42 K, w2 = 0.5118): 3.13 ± 0.3 mN/m and 3.14 ± 0.3 mN/m
surface tension liquid-gas (321.54 K, w2 = 0.2719): 3.45 ± 0.3 mN/m and 3.42 ± 0.3 mN/m
surface tension liquid-gas (323.2 K, w2 = 0.3207): 3.23 ± 0.3 mN/m
surface tension liquid-gas (323.5 K, w2 = 0.7025): 2.88 ± 0.3 mN/m and 2.87 ± 0.3 mN/m
surface tension liquid-gas (323.69 K, w2 = 0.2707): 3.19 ± 0.3 mN/m
surface tension liquid-gas (323.72 K, w2 = 0.5102): 2.92 ± 0.3 mN/m
surface tension liquid-gas (323.76 K, w2 = 0.3677): 3.03 ± 0.3 mN/m and 3.01 ± 0.3 mN/m
surface tension liquid-gas (325.23 K, w2 = 0.3193): 3.04 ± 0.3 mN/m
surface tension liquid-gas (325.29 K, w2 = 0.3668): 2.85 ± 0.3 mN/m
surface tension liquid-gas (325.3 K, w2 = 0.7013): 2.63 ± 0.3 mN/m
surface tension liquid-gas (325.42 K, w2 = 0.2697): 2.96 ± 0.3 mN/m and 2.95 ± 0.3 mN/m
surface tension liquid-gas (325.89 K, w2 = 0.5085): 2.57 ± 0.3 mN/m and 2.59 ± 0.3 mN/m
surface tension liquid-gas (327.16 K, w2 = 0.2688): 2.8 ± 0.3 mN/m and 2.78 ± 0.3 mN/m
surface tension liquid-gas (327.31 K, w2 = 0.3656): 2.59 ± 0.3 mN/m and 2.58 ± 0.3 mN/m
surface tension liquid-gas (327.31 K, w2 = 0.7): 2.43 ± 0.3 mN/m and 2.44 ± 0.3 mN/m
surface tension liquid-gas (327.4 K, w2 = 0.3179): 2.74 ± 0.3 mN/m and 2.73 ± 0.3 mN/m
surface tension liquid-gas (327.68 K, w2 = 0.5072): 2.37 ± 0.3 mN/m and 2.38 ± 0.3 mN/m
surface tension liquid-gas (329.3 K, w2 = 0.3166): 2.54 ± 0.3 mN/m
surface tension liquid-gas (329.34 K, w2 = 0.6987): 2.15 ± 0.3 mN/m and 2.16 ± 0.3 mN/m
surface tension liquid-gas (329.35 K, w2 = 0.5059): 2.18 ± 0.3 mN/m and 2.19 ± 0.3 mN/m
surface tension liquid-gas (329.37 K, w2 = 0.2676): 2.6 ± 0.3 mN/m and 2.59 ± 0.3 mN/m
surface tension liquid-gas (329.44 K, w2 = 0.3643): 2.43 ± 0.3 mN/m
surface tension liquid-gas (331.47 K, w2 = 0.5043): 2.01 ± 0.3 mN/m
surface tension liquid-gas (331.57 K, w2 = 0.315): 2.24 ± 0.3 mN/m
surface tension liquid-gas (331.61 K, w2 = 0.6971): 1.87 ± 0.3 mN/m
surface tension liquid-gas (331.65 K, w2 = 0.2663): 2.36 ± 0.3 mN/m and 2.37 ± 0.3 mN/m
surface tension liquid-gas (331.73 K, w2 = 0.3629): 2.15 ± 0.3 mN/m
surface tension liquid-gas (333.37 K, w2 = 0.2654): 2.19 ± 0.3 mN/m
surface tension liquid-gas (333.4 K, w2 = 0.3138): 2.06 ± 0.3 mN/m
surface tension liquid-gas (333.48 K, w2 = 0.3618): 1.95 ± 0.3 mN/m
surface tension liquid-gas (333.48 K, w2 = 0.6959): 1.63 ± 0.3 mN/m
surface tension liquid-gas (333.55 K, w2 = 0.5028): 1.75 ± 0.3 mN/m and 1.72 ± 0.3 mN/m

Source: the NIST ThermoML archive (doi:10.1021/je049743g)
